One may read the melting point as the temperature of the solid-liquid transition.

Here are results for 82 compounds from a melting point compilation (Tetko et al.; mined from patent text by program, amines drawn as free bases though some values may be those of a salt).

Molecules are shown by their SMILES. A value given as a limit tells only on which side of the number the result lay.

In turn, `CCCCCCCCCCOc1ccc2c(=O)c3cccc(C(=O)OCC)c3oc2c1CCC(=O)OCC` had a melting point of 69 to 70 °C.
`O=c1ccc2c(-n3cncn3)nccc2[nH]1`: the melting point was above 300 °C.
`CC(C)(C)[Si](C)(C)O[C@@H]1CO[C@H](c2cccnc2)[C@@H]1CCC(=O)O` registered a melting point of 93 to 94 °C.
`Fc1cccc(OCc2nnc(-c3ccc4c(c3)CCO4)o2)c1`: the melting point is 91 to 93 °C.
In turn, `COC(=O)c1ccccc1N(C)C(=O)c1ccc(OC)nc1` yielded a melting point of 68 to 70 °C.
`CCOC(=O)c1c(C(C)C)nc(-c2ccccc2)c(C(C)C)c1-c1ccc(F)cc1` returned a melting point of 138 to 140 °C.
`CC(C(=O)Nc1cccc2c1C(=O)c1c(NC(=O)C(C)N(C)C)cccc1C2=O)N(C)C` (configuration not stated): the melting point was in the range of 116 to 117 °C.
Regarding `CCCCc1nn(-c2cc(NC(=O)COCC)ccc2Cl)c(=O)n1Cc1ccc(-c2ccccc2S(=O)(=O)NC(=O)OC(C)(C)C)cc1F`, the melting point was 100 to 102 °C.
As for `Cc1ccc(O[C@H]2CCN(C)C[C@H]2O)cc1C` (relative stereo), the melting point is 127 to 129 °C.
On to `COc1ccc(Oc2cc(Oc3ccc(OC)cc3)c(S(N)(=O)=O)cc2C(=O)O)cc1`, for which the melting point fell in the range of 246 to 248 °C.
For `CCN1CCCc2cc(C(=O)c3ccc4c(c3)CCCN4CC)ccc21`, the melting point worked out at 120 °C.
In turn, `Cc1cc(Nc2nccc(N3CCC(C)CC3)n2)[nH]n1` showed a melting point of 193 to 195 °C.
For the compound `CCOC(=O)c1ccc(C(C(N)=O)C(C)c2cc(N)ccc2N2CCCCC2)cc1` (configuration not stated), the melting point was 148 to 150 °C.
`CC(c1ccc(C(=O)O)cc1)c1cc2cc(C(F)(F)F)ccc2n1S(=O)(=O)c1cccc(C(C)(C)C)c1` (racemic) came in with a melting point of 212 °C.
For the compound `CS(=O)c1ccc(-n2cnc3ccc(-c4nnc(SCc5cccc(F)c5)o4)cc32)cc1` (configuration not stated), the melting point lay within 137 to 138 °C.
In turn, `Clc1ccc(Cn2ccc3cc(OCc4nnn[nH]4)ccc32)cc1` gave a melting point of 162 to 163 °C.
As to `Cc1ccc(OCc2c(F)cccc2Cl)c(NC(=N)Nc2ccc(Cl)cc2)n1`, the melting point was in the range of 148 to 149 °C.
As for `Cc1c(C(=O)Nc2ccc(N3CCC(N4CCOCC4)CC3)c(C#N)c2)cnn1-c1ccc(F)c(F)c1`, the melting point is 243 °C.
On to `CC(C)(Cc1ccccc1)C(NC(=O)COc1ccccc1)Nc1c(Nc2cccnc2)c(=O)c1=O` (configuration not stated), for which the melting point was 249 to 250 °C.
`Cc1nc(-c2ccc(F)cc2)n(-c2ccc(S(N)(=O)=O)cc2)n1` yielded a melting point of 220 to 221 °C.
For `CCOC(=O)c1cn(C)c2cnc3cc(F)c(N4CCC(O)(c5cccc(C(F)(F)F)c5)CC4)cc3c2c1=O` the value was 262 °C.
On to `CC(=NC(C#N)=C(N)C#N)c1cccs1`, for which the melting point was in the range of 177 to 179 °C.
As to `COc1cc(C=C(C=O)C(C=O)=Cc2ccc(OC(=O)c3ccccc3)c(OC)c2)ccc1OC(=O)c1ccccc1`, the melting point lay in the range of 107 to 110 °C.
The compound `COc1ccc(CCNCC(O)c2ccccc2)cc1Cl` (configuration not stated) registered a melting point of 95 to 96 °C.
Compound `Oc1ccc(Oc2ncc(C(F)(F)F)cc2Cl)cc1` displayed a melting point of 70 to 72 °C.
In the case of `O=C(O)C1CCC(=O)N1Cc1ccccc1C(F)(F)F` (configuration not stated), the melting point lay within 139 to 141 °C.
With `CCOC(=O)CNC(=O)[C@H](Cc1ccc(O)cc1)NC(=O)[C@H](CO)NC(=O)[C@H](Cc1c[nH]c2ccccc12)NC(=O)[C@H](Cc1c[nH]cn1)NC(=O)[C@@H]1CCC(=O)N1`, the melting point lay within 218 to 220 °C.
For `CCOC(=O)Nc1c(OC)cc(Cc2cnc(N)nc2N)cc1OC`, the melting point is 192 to 193 °C.
`CCOC(=O)C(CC(=O)c1ccccc1C)(NC(C)=O)C(=O)OCC` gave a melting point of 146 to 147 °C.
Compound `CC(CO)(CO)Nc1ccc([N+](=O)[O-])cc1` gave a melting point of 120 °C.
Compound `Cc1nc(N)nc(N)c1-c1c(Cl)cccc1Cl` gave a melting point of 250 °C.
As for `Cc1c(NC(=O)c2ccc(-c3cc4ccccc4s3)cc2)ccc2cc(CN3CCCC3)cnc12`, the figure is 217 to 218 °C; as for `O=C(OCc1ccc(OCCc2ccc(Cl)cc2)cc1)c1cccnc1`, 77 to 78 °C; as for `COc1ccc(NC(=O)Nc2ccc(Cl)c(Cl)c2)cc1NS(=O)(=O)c1cc(Cl)cc(Cl)c1`, 225 to 227 °C.
With `CN(C)CCOc1ccc(Cl)c(C(=O)NCC23CC4CC(CC(C4)C2)C3)c1`, the melting point is 144 to 147 °C.
For `O=C(Nc1ccc(-c2cnc(-c3ccc(NC(=O)c4c(F)c(F)c(F)c(F)c4F)cc3)[nH]2)cc1)c1cccnc1` the value was 265 to 266 °C.
Compound `NC(=O)c1ccc(-c2ccccc2OCC2CC2)[nH]c1=O` came in with a melting point of 160 to 162 °C.
In turn, `COCCOC1C(O)C(CO)OC1n1cnc2c(N)nc(N)nc21` (configuration not stated) had a melting point of 152 to 154 °C.
`CN1CCC2(CCc3c(C4=C(c5cn(C)c6ccccc56)C(=O)OC4=O)c4ccccc4n3C2)C1` (configuration not stated) came in with a melting point of 238 to 240 °C.
`CN1CCN(C(=O)CC2CN=C(c3cc4cccc(N(C)S(=O)(=O)c5cccs5)c4[nH]3)S2)CC1` (configuration not stated): the melting point lay within 151 to 153 °C.
For `CC(C)(CCC#N)c1ccc(C(=O)Nc2cn3cc(C(F)(F)F)ccc3n2)cc1` the value was 233 to 234 °C.
Compound `CN(C)CCOc1cccc(CC(Nc2cc(-c3ccc(OCc4ccccc4)cc3)ncn2)C(=O)O)c1` (configuration not stated) registered a melting point of 143 °C.
As for `CC(C)(C)c1ccc(C(O)CCCCN2CCC(=C3c4ccccc4CCc4ccccc43)CC2)cc1` (configuration not stated), the figure is 157 to 158 °C; as for `CCCC1CC(=O)C(C(=O)NS(=O)(=O)c2ccc(C)cc2)C(=O)C1` (configuration not stated), 132 to 134 °C.
Take `CCOC(=O)C(C(=O)Nc1nccs1)C(=O)c1cccc(C(F)(F)F)c1NC(=O)C(Cl)Cl` (configuration not stated): the melting point is 90 °C.
Take `COC(=O)c1cc(=O)c2cc3[nH]c(=O)oc3cc2[nH]1`: the melting point is 297 °C.
As for `O=C1C(=O)c2ccc(Br)cc2C2=C1SCC1(CCN(Cc3ccc(F)cc3)CC1)O2`, the figure is 210 to 211 °C; as for `Cc1noc(NS(=O)(=O)c2sccc2-c2ccc3c(c2)OCO3)c1Br`, 183 to 186 °C.
Consider `CSc1nn(-c2c(Cl)cc(Cl)cc2Cl)c(N)c1C(N)=O`, for which the melting point fell in the range of 198 to 199 °C.
For `CC(=Cc1cccc([N+](=O)[O-])c1)C(=O)O` the value was 201 to 202 °C; for `COc1ccc(NC(=O)Nc2ccccc2)cc1`, 196 to 198 °C; for `CCCn1c(=O)[nH]c(=O)c2nc(-c3ccc(/C=C/C(=O)O)cc3)[nH]c21`, above 300 °C.
For `CCOC(=O)c1c(SC)nc(-c2ccc(SC)cc2)n(-c2ccc(C)cc2)c1=O`, the melting point lay within 153 to 155 °C.
In turn, `COc1ccc(S(=O)(=O)N2C(=O)C(c3ccccc3OC)(N3CCC[C@H]3C(=O)OC(C)(C)C)c3cc(Cl)ccc32)c(OC)c1` (some centres not stated) showed a melting point of 136 °C.
As to `COc1cccc(Oc2ccc3nc(C(C)=O)c(O)cc3c2)c1`, the melting point fell in the range of 102 to 104 °C.
In turn, `COC(=O)c1ccc2c(c1)N(C(=O)c1ccc(-c3ccccc3C(F)(F)F)c(C)c1)Cc1cccn1C2` came in with a melting point of 180 to 182 °C.
For the compound `O=C(Nc1nc(-c2ccccc2)cs1)C(=O)Nc1nc(-c2ccccc2)cs1`, the melting point fell in the range of 292 to 293 °C.
`Cc1ccc(-c2c(-c3ccc(S(C)(=O)=O)cc3)[nH]c3ccccc23)cc1` had a melting point of 197 to 198 °C.
As for `CN(C)C1(c2ccccc2)CCC(CNC(=O)N2CCC(c3c[nH]c4ccc(Cl)cc34)CC2)CC1` (configuration not stated), the figure is 140 to 143 °C; as for `CCN(CC)c1ccc(CNc2cc(C(=O)Nc3ccccc3)ccc2OC)cc1`, 180 to 181 °C.
In turn, `Cc1cc2c(c3c1NC(=O)C(C)(C)C3)OC(CBr)C2C` (configuration not stated) came in with a melting point of 192 to 193 °C.
Regarding `COC(=O)c1ccc(C#CCc2ccc3c(c2)C(C)(C)CCC3(C)C)cc1O`, the melting point lay in the range of 75 to 77 °C.
For `CN(C)CC(=O)Nc1cccc2c1C(=O)c1c-2n[nH]c1-c1ccc(N2CCNCC2)cc1`, the melting point is 243 °C.
Regarding `CC(C)(C)OC(=O)COc1ccc2c3c(ccc2c1)OC(=O)CC3`, the melting point lay within 95 to 96 °C.
As for `N#Cc1ccc(N(Cc2ccc(O)cc2)n2cnnc2)cc1`, the melting point lay in the range of 228 to 230 °C.
With `CCCc1c(SC(=O)N(C)C)ccc2c(=O)cc(C(=O)OCC)oc12`, the melting point lay within 113 to 114 °C.
Turning to `FC(F)(F)c1nnc(Sc2ccc(Cl)c(Cl)c2)s1`, the melting point worked out at 46 °C.
Compound `COC(=O)c1ccc(CC(=O)c2ccccc2Cl)cc1` had a melting point of 40 to 42 °C.
With `COc1cc2c(c3c1OC(C)(C)C3)C(c1cccc(C(=O)Nc3c(Cl)cncc3Cl)c1)=NC(C)(C)C2`, the melting point lay in the range of 227 to 228 °C.
For `COC(=O)C1(O)CN2CCC1CC2` (configuration not stated), the melting point is 122 °C.
`C[C@](Cc1c[nH]c2ccccc12)(NC(=O)O)C(=O)NCCC1CCCCC1` showed a melting point of 79 to 81 °C.
`CCOC(=O)C1=C(C)NC(c2nccn2C)=NC1c1ccccc1Cl` (configuration not stated): the melting point was 124 to 127 °C.
With `NCC(=O)c1cccc2c(S(=O)(=O)n3c(CCC(=O)O)cc4cc(Cl)ccc43)cccc12`, the melting point was 130 to 135 °C.
As for `C(=C\c1nc2ccccc2n1-c1ccccn1)/c1ccoc1`, the figure is 162 to 164 °C; as for `CCn1ncc2c3noc(-c4ccccc4C)c3cnc21`, 168 to 170 °C; as for `COCC(Oc1ccc(-n2c(C)nc3cc(C(F)(F)F)ccc32)cc1)C(=O)O` (configuration not stated), 111 to 112 °C.
In turn, `CC(=O)Nc1cccc2c(Br)ccc(C)c12` showed a melting point of 227 to 229 °C.
As for `COc1ccc(/C(=C\C=C\C(=O)O)c2ccccc2)cc1`, the melting point was in the range of 184 to 185 °C.
With `CCOc1cc(C(F)(F)F)nc(N)n1`, the melting point fell in the range of 114 to 116 °C.
In turn, `CCCCCCCCCCCCOCCCNc1cc(OCC(=O)Nc2ccc(NNC=O)cc2)c2ccccc2c1O` yielded a melting point of 137 to 141 °C.
In the case of `CN1CCN(c2ccc(Nc3cc(-c4cccc(-n5ncc6cc(C(C)(C)C)cc(F)c6c5=O)c4CO)nn(C)c3=O)nc2)CC1`, the melting point was in the range of 260 to 264 °C.
Compound `O=C([C@@H]1CCCN1C(=O)CC1CCc2ccccc2C1)N1CCCC1` (some centres not stated) showed a melting point of 104 to 106 °C.
